# Values quoted from earlier work, collected in the CATMoS acute toxicity set (Mansouri et al. 2021).
# “And” between values parts separate entries of the source, which are not always exact repeats. Equal entries are not always repeated.
# Assay: rat acute oral toxicity
# Conditions: in vivo
row,SMILES,LD50
1,CC(C)(c1ccccc1)c1cc(CN2CCCCC2)c(O)c(CN2CCCCC2)c1,600 mg/kg
2,O=c1ncc2[nH]c(=O)[nH]c2[nH]1,1820 mg/kg
3,CCNc1nc(NC(C)(C)C)nc(OC)n1,433 mg/kg
4,O=S1OC[C@@H]2[C@H](CO1)[C@]1(Cl)C(Cl)=C(Cl)[C@@]2(Cl)C1(Cl)Cl (stereo partly specified),76 mg/kg
5,Cc1cc(=S)c(N)n[nH]1,1980 mg/kg
6,O=C(O)c1ccc2ccccc2c1,4500 mg/kg
7,FC(F)(F)c1nc2c(Cl)c(Br)c(Br)c(Cl)c2[nH]1,3.43 mg/kg
8,O=c1c2cccnc2oc2c(Cl)cc(-c3nn[nH]n3)cc12,16000 mg/kg
9,O=C(Nc1ccc(Cl)cc1)c1cc(Cl)cc(-c2ccc(Cl)cc2)c1O,2810 mg/kg
10,CN(C)C(=S)SSC(=S)N(C)C,560 mg/kg
11,Cc1cc(C(C)(C)CC(C)(C)C)ccc1OCCOCC[N+](C)(C)Cc1ccccc1,800 mg/kg
12,CCCCCCOCCOC(=O)CCC(=O)OCCOCCCCCC,4280 mg/kg
13,CCOC(=O)/C=C/C(=O)OCC,1780 mg/kg
14,CCCCCCCc1cc(C)c(O)c(C)c1,1600 mg/kg
15,CCOC(=O)C(Br)CBr (stereo unspecified),240 mg/kg
16,Cc1nc2n(c(=O)c1CCN1CCC(c3noc4cc(F)ccc34)CC1)CCC[C@H]2O,65 mg/kg
17,CC(C)Oc1cccc(C2CC(=O)NC2=O)c1 (stereo unspecified),2400 mg/kg
18,Nc1ccc(N=Nc2ccccc2)c(N)n1,472 mg/kg and 403 mg/kg
19,C=CC(=O)NC,476 mg/kg
20,O=C(O)CCC(=O)OC1CCCCC1,6500 mg/kg
21,CC(C)(C)c1cc(O)ccc1O,700 mg/kg
22,ClC(Cl)Cc1ccccc1,5500 mg/kg
23,Cc1cccc(OC(C)C)c1N(C)C(=O)CCl,950 mg/kg
24,CCOc1ccc([N+](=O)[O-])cc1CNCCO,25 mg/kg
25,CCCCCCCCCCCCOC(CBr)c1ccc(C(C)C)cc1 (stereo unspecified),250 mg/kg
26,COc1ccc2c(c1)c(CC(=O)Oc1cccc(C)c1)c(C)n2C(=O)c1ccc(Cl)cc1,98 mg/kg

row,SMILES,LD50
1,CN=C(O)O/N=C1\SCOC1C(C)C (stereo unspecified),16 mg/kg
2,CC(C)CCCCCCO,2980 mg/kg
3,CCCCOP(=O)(OCCO)OCCCC,915 mg/kg
4,CCS(=O)(=O)CCOP(=S)(OC)OC,500 mg/kg
5,C#CC(OC(=O)C1C(C=C(C)C)C1(C)C)/C(C)=C/CC (stereo unspecified),1680 mg/kg
6,COC(=O)C1=C(C)NC(C)=C(C(=O)OCC(C)C)C1c1ccccc1[N+](=O)[O-] (stereo unspecified),1260 mg/kg
7,O=C(Oc1ccccc1)c1ccccc1O,3000 mg/kg
8,Cc1ccccc1C#N,3200 mg/kg
9,CCCC(=O)NP(=O)(OC)SC (stereo unspecified),125 mg/kg
10,CCCC1C(=O)N(c2ccccc2)N(c2ccccc2)C1=O,529 mg/kg
11,CCO/N=C(\OC(=O)c1ccccc1)c1c(OC)ccc(Cl)c1OC,15000 mg/kg
12,CC1OCC(CN(C)C)O1 (stereo unspecified),575 mg/kg
13,N#CCC(N)=O,3200 mg/kg
14,CC(C)C1NC(=O)c2ccccc2O1 (stereo unspecified),1850 mg/kg
15,Cc1ccccc1NC(=S)NN,200 mg/kg
16,C[N+]12CCC(c3ccccc3)(CC1)C(=O)C2,1480 mg/kg
17,C=C(C)C(=O)OCCOC(=O)C(=C)C,3300 mg/kg
18,CCCCO[Si](OCCCC)(OCCCC)N(C)C1CCCCC1,3550 mg/kg
19,CCCCC1(COC(=O)CCC(=O)O)C(=O)N(c2ccccc2)N(c2ccccc2)C1=O,1700 mg/kg
20,O=[N+]([O-])c1ccc(OP(=O)(OCCCl)OCCCl)cc1,37 mg/kg
21,COc1cccc2c1C(=O)c1c(O)c3c(c(O)c1C2=O)C[C@@](O)(C(C)=O)C[C@@H]3O[C@H]1C[C@H](N)[C@H](O)[C@H](C)O1,336 mg/kg and 290 mg/kg
22,CCOCOC(=O)c1ccccc1Nc1c(Cl)ccc(C)c1Cl,307 mg/kg
23,Nc1ccc(S(=O)(=O)O)cc1,5380 mg/kg
24,O=[N+]([O-])c1ccc(Oc2ccc(C(F)(F)F)cc2Cl)cc1,1000 mg/kg
25,CCCCOCCOCCSC#N,90 mg/kg
26,NNC(=O)CSc1cc(Oc2ccc(Cl)cc2)ncn1,800 mg/kg

row,SMILES,LD50
1,COc1ccc2c(c1)CCC(c1ccccc1)=C2c1ccc(OCCN2CCCC2)cc1,302 mg/kg
2,CC1CC2CN(C)CC(C2O)C1N1CCCC1 (stereo unspecified),500 mg/kg
3,CCCCCCCCOC(CBr)c1ccc(C(C)(C)C)cc1 (stereo unspecified),250 mg/kg
4,CCCCOCCOCCOCOCCOCCOCCCC,1750 mg/kg
5,C=CP(=O)(OCCCl)OCCCl,990 mg/kg
6,CCCCCC=CCC1CC(=O)OC1=O (stereo unspecified),1100 mg/kg
7,CCCC=C(CC)C(=O)O,5660 mg/kg
8,C=C(C)C(=O)Nc1ccc(Cl)c(Cl)c1,1800 mg/kg
9,CCCCCCCCCCCC=O,23000 mg/kg
10,CCCCCCc1ccc(O)cc1O,550 mg/kg
11,Nc1ccccc1C(=O)O,5410 mg/kg
12,CCCCCCCCOC(C)=O,3000 mg/kg
13,CC(C)NC(=N)NC(=N)Nc1ccc(Cl)cc1,58 mg/kg
14,COC(=O)OC,13000 mg/kg
15,CCSCC,3420 mg/kg
16,FC(Cl)(Cl)c1ccccc1,450 mg/kg
17,CCOC(=O)Cc1[nH]nc2ccc(Cl)cc12,4800 mg/kg
18,Cc1cccc(N2CC(CO)OC2=O)c1 (stereo unspecified),1220 mg/kg
19,Cc1ccc(NN)cc1,262 mg/kg
20,CCOC(=O)CN=C=O,1130 mg/kg
21,NC(Cc1ccc(N(CCCl)CCCl)cc1)C(=O)O (stereo unspecified),52 mg/kg and 105 mg/kg
22,COc1ccccc1-c1ccccc1,3600 mg/kg
23,COC(=O)C1=C(C)NC(C)=C(C(=O)OCCN2CCN(C(c3ccccc3)c3ccccc3)CC2)C1c1cccc([N+](=O)[O-])c1 (stereo unspecified),156 mg/kg
24,CCCCCCCCCCCC(=O)N(CCO)CCO,2700 mg/kg
